According to ChEMBL document CHEMBL1127884, “Inhibition of stromelysin-1 (MMP-3) by peptidyl phosphinic acids” (Bioorg Med Chem Lett, 1994):
pKi: −log10 of the molar value.

Columns and labels:
[1] = biological target: T1, Stromelysin-1 (Homo sapiens, UniProt P08254); assay: In vitro inhibition of human recombinant stromelysin-1.
Target sequence in this assay (P08254 whole entry): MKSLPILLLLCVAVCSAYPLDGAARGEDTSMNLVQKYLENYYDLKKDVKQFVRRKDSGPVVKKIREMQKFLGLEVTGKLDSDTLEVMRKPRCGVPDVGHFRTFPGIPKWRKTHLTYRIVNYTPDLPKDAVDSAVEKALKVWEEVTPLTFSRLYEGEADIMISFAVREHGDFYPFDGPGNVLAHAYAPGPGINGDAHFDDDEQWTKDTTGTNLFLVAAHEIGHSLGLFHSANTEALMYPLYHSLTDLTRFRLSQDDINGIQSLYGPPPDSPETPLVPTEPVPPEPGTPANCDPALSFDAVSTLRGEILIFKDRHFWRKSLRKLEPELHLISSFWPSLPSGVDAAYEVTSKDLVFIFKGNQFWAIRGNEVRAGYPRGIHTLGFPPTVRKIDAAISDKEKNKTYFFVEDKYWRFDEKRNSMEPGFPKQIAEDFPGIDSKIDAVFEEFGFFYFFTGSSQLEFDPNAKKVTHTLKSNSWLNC

[2] = biological target: T2, Interstitial collagenase (Homo sapiens) (UniProt P03956); assay: In vitro inhibition of human fibroblast collagenase at a 10 uM.
T2 sequence (whole entry): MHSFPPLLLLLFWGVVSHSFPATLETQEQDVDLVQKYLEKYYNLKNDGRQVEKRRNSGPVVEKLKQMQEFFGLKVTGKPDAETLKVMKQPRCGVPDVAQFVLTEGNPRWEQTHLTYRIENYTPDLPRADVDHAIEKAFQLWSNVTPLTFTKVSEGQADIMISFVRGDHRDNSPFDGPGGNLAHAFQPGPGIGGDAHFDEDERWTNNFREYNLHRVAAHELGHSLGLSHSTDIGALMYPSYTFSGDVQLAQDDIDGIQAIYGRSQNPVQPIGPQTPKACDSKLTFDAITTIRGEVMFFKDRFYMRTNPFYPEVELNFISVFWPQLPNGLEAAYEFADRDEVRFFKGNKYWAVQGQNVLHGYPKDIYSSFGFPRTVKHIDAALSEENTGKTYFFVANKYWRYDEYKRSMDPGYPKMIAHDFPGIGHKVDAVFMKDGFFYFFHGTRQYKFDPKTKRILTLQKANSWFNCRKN

[3] = biological target: T3, Interstitial collagenase (Homo sapiens, UniProt P03956); assay: In vitro inhibition of human fibroblast collagenase.
T3 sequence (P03956 whole entry): T2 sequence (whole entry)

[4] = biological target: T1, Stromelysin-1; assay: In vitro inhibition of human recombinant stromelysin-1 at a concentration of 5 uM.
Target sequence in this assay (P08254 100-477 limits assumed): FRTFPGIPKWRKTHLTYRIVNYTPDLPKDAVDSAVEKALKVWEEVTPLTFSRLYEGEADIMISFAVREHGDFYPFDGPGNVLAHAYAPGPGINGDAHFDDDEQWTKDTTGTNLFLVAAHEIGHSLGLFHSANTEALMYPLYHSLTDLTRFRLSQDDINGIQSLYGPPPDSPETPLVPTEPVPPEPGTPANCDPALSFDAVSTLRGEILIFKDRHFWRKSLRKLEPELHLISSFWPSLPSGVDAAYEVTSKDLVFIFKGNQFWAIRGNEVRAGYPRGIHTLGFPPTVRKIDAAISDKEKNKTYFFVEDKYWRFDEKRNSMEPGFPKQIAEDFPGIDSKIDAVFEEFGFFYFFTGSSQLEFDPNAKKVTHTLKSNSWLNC

## CC(=O)N[C@@H](C)C(=O)N[C@@H](C)P(=O)(O)CC(CCc1ccccc1)C(=O)N[C@@H](CC(C)C)C(=O)Nc1ccccc1 (stereo partly specified)
[1]
  pKi: 6.47
[2]
  inhibition: 0%

## CC(=O)N1CCCC1C(=O)N[C@@H](C)C(=O)N[C@@H](C)P(=O)(O)CC(CCc1ccccc1)C(=O)N[C@@H](CC(C)C)C(=O)Nc1ccccc1 (stereo partly specified)
[3]
  pKi: 5.54
[1]
  pKi: 8.21

## CC(C)C[C@H](NC(=O)C(CCc1ccccc1)CP(=O)(O)CNC(=O)CNC(=O)OCc1ccccc1)C(=O)Nc1ccccc1 (stereo partly specified)
[1]
  pKi: 5.85
[2]
  inhibition: 4%

## CC(C)CC(NC(=O)C(CCc1ccccc1)CP(=O)(O)CNC(=O)CN1C(=O)c2ccccc2C1=O)C(=O)Nc1ccccc1 (stereo unspecified)
[1]
  pKi: 6.39
[2]
  inhibition: 14%

## CC(C)C[C@H](NC(=O)C(CCc1ccccc1)CP(=O)(O)CNC(=O)[C@H](Cc1c[nH]cn1)NC(=O)OCc1ccccc1)C(=O)Nc1ccccc1 (stereo partly specified)
[1]
  pKi: 6.68
[2]
  inhibition: 9%

## CC(=O)N1CCCC1C(=O)N[C@@H](C)C(=O)NCP(=O)(O)CC(CCc1ccccc1)C(=O)N[C@@H](CC(C)C)C(=O)Nc1ccccc1 (stereo partly specified)
[1]
  pKi: 7.82
[2]
  inhibition: 60%

## CC(C)C[C@H](NC(=O)C(CCc1ccccc1)CP(=O)(O)[C@H](C)NC(=O)[C@H](C)NC(=O)C1CCCN1C(=O)c1ccccc1)C(=O)Nc1ccccc1 (stereo partly specified)
[3]
  pKi: 5.29
[1]
  pKi: 7.70

## CC(C)C[C@H](NC(=O)C(CCc1ccccc1)CP(=O)(O)CNC(=O)Cc1ccccc1)C(=O)Nc1ccccc1 (stereo partly specified)
[1]
  pKi: 6.03
[2]
  inhibition: 0%

## CC(C)C[C@H](NC(=O)C(CCc1ccccc1)CP(=O)(O)CNC(=O)[C@H](C)NC(=O)OCc1ccccc1)C(=O)Nc1ccccc1 (stereo partly specified)
[1]
  pKi: 6.55
[2]
  inhibition: 0%

## CC(=O)N[C@@H](C)C(=O)N[C@@H](C)C(=O)N[C@@H](C)P(=O)(O)CC(CCc1ccccc1)C(=O)N[C@@H](CC(C)C)C(=O)Nc1ccccc1 (stereo partly specified)
[1]
  pKi: 7.38
[2]
  inhibition: 32%

## CC(C)C[C@H](NC(=O)C(CCc1ccccc1)CP(=O)(O)CNC(=O)[C@H](CC(N)=O)NC(=O)OCc1ccccc1)C(=O)Nc1ccccc1 (stereo partly specified)
[1]
  pKi: 6.22
[2]
  inhibition: 14%

## CC(C)C[C@H](NC(=O)C(CCc1ccccc1)CP(=O)(O)CNC(=O)[C@H](CCCCN)NC(=O)OCc1ccccc1)C(=O)Nc1ccccc1 (stereo partly specified)
[1]
  pKi: 5.34
[2]
  inhibition: 18%

## CC(=O)N1CCCC1C(=O)N[C@@H](C)P(=O)(O)CC(CCc1ccccc1)C(=O)N[C@@H](CC(C)C)C(=O)Nc1ccccc1 (stereo partly specified)
[4]
  inhibition: 57%
[2]
  inhibition: 0%

## CC(C)C[C@H](NC(=O)C(CCc1ccccc1)CP(=O)(O)CNC(=O)[C@H](Cc1ccc(O)cc1)NC(=O)OCc1ccccc1)C(=O)Nc1ccccc1 (stereo partly specified)
[1]
  pKi: 6.25
[2]
  inhibition: 0%

## CCCC[C@H](NC(=O)OCc1ccccc1)C(=O)NCP(=O)(O)CC(CCc1ccccc1)C(=O)N[C@@H](CC(C)C)C(=O)Nc1ccccc1 (stereo partly specified)
[1]
  pKi: 5.89
[2]
  inhibition: 0%

## CC(C)C[C@H](NC(=O)C(CCc1ccccc1)CP(=O)(O)[C@H](C)NC(=O)CN1C(=O)c2ccccc2C1=O)C(=O)Nc1ccccc1 (stereo partly specified)
[1]
  pKi: 5.62
[2]
  inhibition: 0%

## CC(C)C[C@H](NC(=O)C(CCc1ccccc1)CP(=O)(O)CNC(=O)OCc1ccccc1)C(=O)Nc1ccccc1 (stereo partly specified)
[3]
  pKi: 4.80
[1]
  pKi: 6.55

## CC(C)C[C@H](NC(=O)C(CCc1ccccc1)CP(=O)(O)[C@H](C)NCc1ccccc1)C(=O)Nc1ccccc1 (stereo partly specified)
[1]
  pKi: 5.72
[2]
  inhibition: 7%

## CC(C)C[C@H](NC(=O)C(CCc1ccccc1)CP(=O)(O)CNC(=O)[C@H](Cc1ccccc1)NC(=O)OCc1ccccc1)C(=O)Nc1ccccc1 (stereo partly specified)
[1]
  pKi: 6.15
[2]
  inhibition: 4%

## CC(C)C[C@H](NC(=O)C(CCc1ccccc1)CP(=O)(O)CNCc1ccccc1)C(=O)Nc1ccccc1 (stereo partly specified)
[1]
  pKi: 5.72
[2]
  inhibition: 0%

## CC(C)C[C@H](NC(=O)C(CCc1ccccc1)CP(=O)(O)[C@H](C)NC(=O)OCc1ccccc1)C(=O)Nc1ccccc1 (stereo partly specified)
[3]
  pKi: 5.12
[1]
  pKi: 6.48

## CC(C)C[C@H](NC(=O)C(CCc1ccccc1)CP(=O)(O)CNC(=O)[C@H](C)NC(=O)C1CCCN1C(=O)c1ccccc1)C(=O)Nc1ccccc1 (stereo partly specified)
[1]
  pKi: 7.62
[2]
  inhibition: 39%

## CC(C)C[C@H](NC(=O)C(CCc1ccccc1)CP(=O)(O)CNC(=O)[C@H](CCC(=O)O)NC(=O)OCc1ccccc1)C(=O)Nc1ccccc1 (stereo partly specified)
[1]
  pKi: 6.43
[2]
  inhibition: 12%
